As a reminder, the Tmax is the time at which the peak concentration occurs.

Series [1] in a line: Intranasal triptans with alkylsaccharide in rats, plasma levels by HPLC.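 Note: rats in groups of eight given 20 µL into one nostril, dose expressed as triptan free base, Cmax and Tmax read from plasma concentration–time curves.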 Type of series: in vivo.
Experimental: Each set of drug solutions is administered to six groups of eight rats each by 20 uL instillation to a single nare of each animal. […] After the last blood sample is collected each animal is cuthanizcd with CO2. After blood collection, plasma is immediately prepared from each blood sample using lithium/heparin as the anticoagulant. Plasma samples are stored at −70° C. until analyzed. […] The observed Tmax values from each plot is determined by inspection of the concentration vs time plots and recorded as shown in Table XII. The doses designated in this table reflect amounts of triptan free base in each case.
The test system of series [2] is blood D-glucose. Description: Insulin eye drops with absorption enhancer in xylazine/ketamine-anesthetized hyperglycemic rats, blood D-glucose. Type of series: in vivo, rat. Conditions: for Blood Glucose: before eye drops.
The next series has as its system human nasal epithelium. Conditions: in vivo.
The subject of series [3] is blood D-glucose. In words: Insulin nose drops with tetradecylmaltoside in rats, blood glucose. The series is classed as in vivo, rat. Conditions: nose drop, same insulin concentration with 0.5% tetradecylmaltoside. The source says: Tetradecylmaltoside (TDM) in combination with insulin also produced a drop in blood D-glucose levels when administered in the form of a drop intranasally as well as via a drop by the ocular route. […] Thus, intranasal delivery and administration of the alkyl saccharide with drug results in lowering of blood glucose levels.

Series [4] has as its system Aspergillus niger (ATCC No. 16404). In words: Antimicrobial activity of alkylglycoside solutions, plate count log reduction. Type of series: cell-based. Conditions: 0.2%, BSA. An excerpt:
(§1) 20110-2209. The viable microorganisms used in the invention were not more than five passages removed from the original ATCC culture. As described herein, one passage is defined as the transfer of organisms from an established culture to fresh medium and all transfers are counted.
(§2) Cultures received from the ATCC are resuscitated according to the directions provided by the ATTC. Cells grown in broth were pelleted by centrifugation, resuspended in 1/20th the volume of fresh maintenance broth, and combined with an equal volume of 20% (v/v in water) sterile glycerol. Cells grown on agar were scraped from the surface into the maintenance broth also containing 10% glycerol broth. Small aliquots of the suspension were dispensed into sterile vials and the vials were stored in liquid nitrogen or in a mechanical freezer at a temperature no higher than about −50° C. When a fresh seed-stock vial was required, it was removed and used to inoculate a series of working stock cultures. These working stock cultures were then used periodically (each day in the case of bacteria and yeast) to start the inoculum culture.
(§3) The culture conditions for the inoculum culture is substantially as described in Table IV. For example, suitable media can include but is not limited to, Soybean-Casein Digest or Sabouraud Dextrose Agar Medium. […]
(§4) The suspension should be refrigerated if it is not used within 2 hours. To confirm the initial cfu per mL estimate, the number of cfu per mL in each suspension was determined using the conditions of media and microbial recovery incubation times listed in Table IV (e.g., from about 3 to about 7 days). This value serves to calibrate the size of inoculum used in the test. The bacterial and yeast suspensions were used within 24 hours of harvest; whereas the fungal preparation can be stored under refrigeration for up to 7 days.
(§5) To determine which alkylglycoside formulations have antibacterial activity, the formulations were prepared in phosphate buffered saline (PBS) at pH 7. As a source of nutrition, either 1.5 mg/mL bovine serum albumin (BSA; see Tables V and VI) or 1 mg/mL of PYY was added (see Table VII) to the medium. BSA (CAS Number: 9048-46-8) was obtained from Sigma-Aldrich, St. Louis, Mo., USA, n-dodecyl-4-O-α-D-glucopyranosyl-β-D-glucopyranoside and n-tetradecyl-4-O-α-D-glucopyranosyl-β-D-glucopyranoside were obtained from Anatrace Inc., Maumee, Ohio, USA, and PYY was obtained from Bachem California Inc., Torrance, Calif., USA.
(§6) Antibacterial activity of the alkylglycosides were conducted in four sterile, capped bacteriological containers of suitable size into which a sufficient volume of alkylglycoside solution had been transferred. Each container was inoculated with one of the prepared and standardized inoculums and mixed. The volume of the suspension inoculum was between about 0.5% and about 1.0% of the volume of the alkylglycoside solution. […]. To determine the level of inhibition of growth, or reduction of growth based on a logarithmic scale, the initial concentration of viable microorganisms in each test preparation was estimated based on the concentration of microorganisms in each of the standardized inoculum as determined by the plate-count method. The inoculated containers were then incubated at about 22.5° C.±2.5. The growth or non-growth of the microorganisms in each culture/container were again determined at day 14 and day 28. The number of cfu present in each calculation was determined by the plate-count procedure standard in the art for the applicable intervals. The change in the orders of magnitude of bacterium and/or fungi was then determined by subtracting the first calculated log 10 values of the concentrations of cfu per mL present at the start or beginning (e.g., day 0), from the log 10 values of the concentration of cfu per mL for each microorganism at the applicable test intervals (e.g., day 14 and day 28; see Tables V, VI and VII).

The test system of series [5] is Candida albicans (ATCC No. 10231). The description is as above. Type of series: cell-based. Conditions: 0.2%, BSA.
Text: as §1, §2, §3, §4, §5, §6

Series [6] relates to Escherichia coli (ATCC No. 8739). The description is as above. Conditions: 0.2%, BSA; growth from initial count. Type of series: cell-based.
Text: as §1, §2, §3, §4, §5, §6

Series [7] deals with Staphylococcus aureus (ATCC No. 6538). The description is as above. The series is classed as cell-based. Conditions: 0.2%, BSA.
Text: as §1, §2, §3, §4, §5, §6

Series [8] in a line: Naratriptan sublingual spray two-way crossover study in patients. Conditions: in the presence of 0.18-0.2% alkylsaccharide (dodecylmaltoside). The series is classed as in vivo. The protocol: Manufacturing process: Naratriptan hydrochloride salt is dissolved in water and required quantity of polyethylene glycol or ethanol is added. The alkyl glycoside, flavors, aspartame are next dissolved in the solution. Final adjustment of volume is made with water. The sublingual formulation with and without dodecylmaltoside alkylsaccharide is administered using a metered spray pump to 20 patients in a two way, two period cross over study.

The conditions of series [9]: cited from earlier work.
[10] abbreviates: Naratriptan 0.22 mg/kg intranasal, alkylsaccharide 0.02%.
Setting [11] is: Naratriptan 0.22 mg/kg intranasal, alkylsaccharide 0.05%.
[12] abbreviates: Naratriptan 0.22 mg/kg intranasal, alkylsaccharide 0.1%.
[13] abbreviates: Naratriptan 0.22 mg/kg intranasal, alkylsaccharide 0.5%.
Where [14] appears, read: Naratriptan 0.22 mg/kg intranasal, alkylsaccharide 2%.
Where [15] appears, read: Sumatriptan 6.2 mg/kg intranasal, alkylsaccharide 0.02%.
The mark [16] stands for this setting: Sumatriptan 6.2 mg/kg intranasal, alkylsaccharide 0.05%.
The mark [17] stands for this setting: Sumatriptan 6.2 mg/kg intranasal, alkylsaccharide 0.1%.
Where [18] appears, read: Sumatriptan 6.2 mg/kg intranasal, alkylsaccharide 0.5%.
Setting [19] is: Sumatriptan 6.2 mg/kg intranasal, alkylsaccharide 2%.

With `CCCCCCCCCCCCCCO[C@@H]1O[C@H](CO)[C@@H](O[C@H]2O[C@H](CO)[C@@H](O)[C@H](O)[C@H]2O)[C@H](O)[C@H]1O` [tetradecyl maltoside, n-tetradecyl-4-O-α-D-glucopyranosyl-β-D-glucopyranoside], the “Ratio Cmax(alkylsacch)/Cmax(No alkylsacch)” value in series [1] (setting [10]) was “≦1.5”; in series [1] (setting [11]) it was “≧1.5”; in [1] (setting [12]), “≧1.5”; in series [1] (setting [13]), “≧1.5”; in series [1] (setting [14]), “≧1.5”; in series [1] (setting [15]), “≦1.5”. The “Ratio Cmax(alkylsacch)/Cmax(No alkylsacch)” value in [1] (setting [16]), in [1] (setting [17]), in [1] (setting [18]) and in series [1] (setting [19]) was “≧1.5” each time. The time to peak (Tmax) was around 60 min in series [1] (setting [10]); around 5 to 15 min in series [1] (setting [11]); around 5 to 15 min in [1] (setting [12]); around 5 to 15 min in series [1] (setting [13]); around 5 to 15 min in series [1] (setting [14]); around 60 min in series [1] (Rizatriptan […] intranasal, alkylsaccharide 0.02%). The time of peak concentration (Tmax) in series [1] (Rizatriptan […] intranasal, alkylsaccharide 0.05%) is around 5 to 15 min; in series [1] (Rizatriptan […] intranasal, alkylsaccharide 0.1%), around 5 to 15 min; in series [1] (Rizatriptan […] intranasal, alkylsaccharide 0.5%) it was around 5 to 15 min; in [1] (Rizatriptan […] intranasal, alkylsaccharide 2%) it was around 5 to 15 min; in series [1] (setting [15]), around 60 min; in [1] (setting [16]) it was around 5 to 15 min. Moreover, the time to peak (Tmax) in series [1] (setting [17]), in series [1] (setting [18]) and in series [1] (setting [19]) was around 5 to 15 min each time. Further, the “hypoglycemic effect / insulin absorption enhancement” value in the series on blood D-glucose [2] (eye drops 0.2% insulin + 0.5% enhancer) and in the series on blood D-glucose [2] (eye drops 0.2% insulin + […] enhancer) was “effective” each time. The “effect on blood glucose levels” value in the series on blood D-glucose [2] (eye drops 0.2% regular porcine insulin with […] tetradecylmaltoside) is “prompt and prominent drop in blood glucose levels”; with blood D-glucose [3], “decrease even more”. Also, the “Blood Glucose” value came out at 311 mg/dL with blood D-glucose [2] (time −10 min) and 319 mg/dL in the series with blood D-glucose [2] (time −20 min). Moreover, the “irritation of the nasal mucosa” value in the series with human nasal epithelium was “no observable irritation”. The “Log Reductions, Day 14” value in series [4] is 0.5 orders of orders of magnitude reduction; in [5], 3.0 orders of orders of magnitude reduction; in series [7] it was “≧5 orders of orders of magnitude reduction”. Besides, the “Log Reductions, Day 28” value is listed as “No growth” in series [4] (growth from initial count), “≧5.4 orders of orders of magnitude reduction” in series [5], “No growth” in series [6] and “≧5 orders of orders of magnitude reduction” in [7].

On to `CNS(=O)(=O)CCc1ccc2[nH]cc(C3CCN(C)CC3)c2c1` [naratriptan], for which the “bioavailability across the sublingual mucosal membranes” value in [8] was “little increase”.

For `O=C(c1ccc(OCCN2CCCCC2)cc1)c1c(-c2ccc(O)cc2)sc2cc(O)ccc12` [raloxifene], the water solubility result in series [9] is recorded as “approx. 0.25 mg/L”.

Source of the values: patent publication US9283280B2, “Compositions for drug administration” (Aegis Therapeutics, LLC, priority 2008, dated 2016).
